Assays:
Assay type in all cases: cell-based
HeLa cells = assay: Mitochondrial live imaging in HeLa cells; conditions: vs control
Experimental: Mitochondrial accumulation then was investigated in other cell lines. C9 KD was performed in HeLa cells, followed by a fluorescent mitochondrial dye for live imaging. […] To study the mitochondrial dysfunction phenotype upon C9 KD in a non-cancer cell line, C9 was knocked down in rat-derived cortical neurons in combination with a mitochondrial stain.

p53 null U87 cells = assay: Mitochondrial imaging in p53 null U87 clones; conditions: p53 KO U87 clones KO #4 and KO #9
Description: C9 then was knocked down in two p53 KO U87 cells lines which were imaged to show whether mitochondrial disorganization depends on p53. […] FIG. 38 is a set of confocal microscopy images of two p53 null U87 clones (KO #4 and KO #9) treated with control and C9 siRNA, stained with Mitotracker red.

[1] = system: HCC1937 cells (with BRCA1 mutation); assay: CellTiter-Glo viability assay in HCC1937 cells
Experimental: […] (HCC1937, with BRCA1 mutation) cells were harvested using trypsin (0.5 ml per well) and the media was saved from each well. The saved media were resuspended with the trypsinised cells and 2-3 aliquots (0.05 ml each) of this suspension was transferred to 96-well plates. HCC cells were subjected to S1 and S2 as described above. A CellTiter-Glo™ Luminescent Viability assay was used to measure the viability of these aliquots by adding 0.15 mL of the CTG-media mixture to each well. The rest of the culture was used to extract protein. Viability of cells was measured using the 1:1 dilution of the CellTiter-Glo™ Luminescent reagent (Promega™) with media, which was read on a Victor 5™ plate reader after 10 minutes of shaking at room temperature. The intensity of luminescence was normalized to that of the DMSO control.
Without being bound to any particular theory, it is believed that this is because PARP1 is inhibited which is known to cause death in BRCA1 deficient breast cancer cell lines.

p53 target genes = assay: qRT-PCR of p53 target genes; conditions: U87 cells
Experimental: For most RNA experiments, RNA was isolated from cells using the Qiagen™ RNeasy minikit. Complementary DNA was generated using the Qiagen™ Quantitect™ reverse transcription kit with 0.5 μg of input RNA as measured with a NanoDrop spectrophotometer (Thermo Scientific™). Real-time PCR was carried out on an ABI StepOne Plus™ machine using power SYBR Green dye (Thermo Scientific™). Transcript levels were assayed in triplicate and normalized to RPL32 and HPS90 mRNAs. Relative changes in cDNA levels were calculated using the comparative Ct method (ΔΔCT method). All RT-qPCR primers were designed with Primer3Plus™ or retrieved from Primerbank™. Primer sequences are listed here, including in Table 3. All primers were purchased from Life Technologies™. H. Generation of p53 Knock Out U87 Cell Lines by CRISPR
This also is consistent with p53 activation. FIG. 27 presents RT-qPCR analysis of C9ORF72, CDKN1A (p21), NOXA, PUMA, GLUT1, MDM2 and GLUT3 mRNA levels in U87 cells treated with control (siCtrl) and C9 (siC9; SEQ ID NO:631) siRNA. These studies were performed using three biological replicates (n=3); error bars represent S.E.M. Statistical significance was assessed by an unpaired t-test: NS P>0.05, *P≤0.05, **P≤0.01, ***P≤0.001 ****P≤0.0001.

U87 cells [2] = assay: β-Galactosidase staining (senescence)
Experimental: β-Galactosidase staining was performed using a Senescence™ β-Galactosidase Staining Kit (Cell Signaling™, #9860) and used according to manufacturer's instructions.
To confirm that cells undergo non-apoptotic death, apoptosis was blocked with a broad caspase inhibitor Z-VAD-FMK upon C9 KD. […] Additionally, the apoptosis inducer, staurosporine (STS), was used to asses Z-VAD-FMK efficacy. […] A beta galactosidase staining technique was used to asses senescence upon C9 KD. […] See FIG. 20, for which U87 cells were treated with control (siCtrl) and C9 (siC9; SEQ ID NO:631) siRNA and then subjected to β-Galactosidase Staining.

U87 cells [3] = assay: Transmission electron microscopy of vacuoles; conditions: 72 hours of KD
Experimental: Since endocytic vacuoles (including macropinosomes) are known to have a single membrane U87 cells treated with control and siC9 siRNA (SEQ ID NO:631) were imaged using transmission electron microscopy (TEM). […] FIG. 13 is a set of representative TEM images of U87 cells treated with Control (siCtrl) and C9 (siC9) siRNA after 72 hours of KD. One asterisk indicates representative vacuoles; two asterisks represent membrane folding. The white boxes in FIG. 13A and FIG. 13B show locations for the digital zoomed-in images below, in FIG. 13C and FIG. 13D. The scale bar represents 5 μm.

[4] = system: RAS/RAC1 signaling pathway; assay: Western blot of RAS, RAC1 and phospho-ERK; conditions: U87 cells
Experimental: For Western blot analysis, cells were lysed with lysis buffer (20 mM sodium phosphate (pH 7.0), 250 mM NaCl, 30 mM sodium pyrophosphate, 0.1% Nonidet™ P-40, 5 mM EDTA, 10 mM NaF, 0.1 mM Na3VO4, and 1 mM PMSF) supplemented with complete protease inhibitors (Roche™) and homogenized by passage through a 28 gauge needle. Protein concentration was measured with a Bio-Rad™ protein assay dye reagent and results were read using a spectrophotometer (BiophotometerPlus™ by Eppendorf™). Protein extracts were resolved by SDS PAGE on gradient (Thermo Fisher™) or 12% gels. Proteins were then electrotransferred at 350 mA for 80 minutes onto a PVDF membrane (Immobilon-P PVDF). Membranes were blocked with PBST with 5% milk and 1% BSA for 30 minutes. Quantitation of blots was performed Image Studio Lite software (LI-COR Biosciences™).
Macropinocytosis is reported to be dependent on RAS and/or RAC1 activation, therefore whether the RAS/RAC1 signaling pathway is activated upon C9 KD was explored. First, RAS and RAC1 protein levels were measured in U87 cells upon C9 KD. […] If the RAS/RAC1 pathway is active, then ERK1/2 phosphorylation should be observed. FIG. 14 is a WB of U87 cells treated with control (siCtrl) and C9 siRNA (siC9; SEQ ID NO:631) measuring protein levels of RAS and phospho-ERK and loading control actin (left) and a WB showing RAC1 levels under the same conditions with actin as loading control (right). […] Therefore both macropinocytosis and RAS/RAC1 signaling pathways are a possible therapeutic targets in C9 ALS.

For “siC9: siRNA targeting C9 mRNA: UUAAUGAAACAAUAAUCACUC (SEQ ID NO:631; sense) and GUGAUUAUUGUUUCAUUAAUC (SEQ ID NO:632; antisense) (listed as RNA, chemistry not given here)”, the mitochondrial network organization (HeLa cells) was “mitochondrial network disorganization”, the mitochondrial organization (p53 null U87 cells) was “caused mitochondrial disorganization” and the cell viability [1] was “decrease in their viability”. The “mRNA levels of p53 target genes (p21, MDM2, NOXA, PUMA)” value (p53 target genes) was “elevated”, the “mRNA levels of repression targets (GLUT1 and GLUT3)” value (p53 target genes) was “lower mRNA levels” and the “nucleus and cell size” value (U87 cells [2]) was “increase in both nucleus and cell size”. For the same substance, the “β-galactosidase staining (senescence)” value (U87 cells [2]) was “did not stain with the assay”, the “vacuole appearance in TEM” value (U87 cells [3]) was “electron-transparent and had a single membrane” and the RAC1 protein levels [4] was “elevated”. The RAS protein levels [4] was “elevated” and the “phosphorylation of ERK1/2” value [4] was “increased phosphorylation”.
